Patent US9725412B2, “Polymorphic forms of perindopril (L)-arginine and process for the preparation thereof” (Mylan Laboratories Limited, priority 2008, dated 2017)

Experiments:
[1] = Transformation kinetics: solvent-mediated polymorph transformation (slurry in solvents, PXRD); format: physicochemical; conditions: for Result (polymorphic form by PXRD after slurry): stirred 12 hours; for Form conversion: stirred in toluene or acetonitrile for more than 15 hrs at room temperature; for Form conversion or dissociation: slurry in heptane
Description: Solvent-mediated polymorph transformations are an effective method to measure the physical stability for both metastable and thermodynamically stable polymorphs. This study is carried out by slurring 1 g of Form γ, amorphous and literature Form α of Perindopril (L)-Arginine salt in different solvents at 25 to 30° C. for several hours. The solid samples are then characterized by PXRD (example 10, Table 6).
1 g of Perindopril (L)-Arginine salt is suspended in appropriate solvents at different temperature and stirred for 12 hours to afford form γ of Perindopril (L)-Arginine.

[2] = Physical stability on drying and at humidity (RH >90%), by PXRD and Karl-Fisher; format: physicochemical
Description: The physical stability of the amorphous form, Form γ and literature Form α of Perindopril (L)-Arginine was determined by storing approximately 3.0 g of the sample a) at 50° C., b) at 70° C., c) at 100° C. and d) at 90% Relative Humidity (RH). […]

[3] = Hygroscopic studies at different relative humidities; format: physicochemical; conditions: stored in different relative humidities for 1 to 3 months
[4] = Solid state stability at accelerated stress conditions (40° C./75% relative humidity); format: physicochemical; conditions: 40° C./75% RH
Description: The present invention is to provide Perindopril (L)-Arginine (γ) form having the degree of crystallinity under 60%, which has enhanced stability to heat and humidity. According to the present invention, the obtained Perindopril (L)-Arginine (γ) form is subjected to accelerated stability at 40° C. and relative humidity (RH) 75%.
The samples were tested by PXRD, Karl-Fisher titrator and HPLC for final purity and degradation products.

[5] = tablets, temperate-climate countries; cited from earlier work

With `CCC[C@H](N[C@@H](C)C(=O)N1[C@H](C(=O)O)C[C@@H]2CCCC[C@@H]21)C(=O)OCC.N=C(N)NCCC[C@H](N)C(=O)O` [Amorphous, Perindopril (L)-Arginine] as the molecule, how does the “Result (polymorphic form by PXRD after slurry)” value ([1]; ACN, volume 10, 25-30 ° C.) read?
Its value is “Form γ”.

And the Form conversion [1]?
Its Form conversion is “converted to form γ”.

What about the “Results (polymorphic form by PXRD)” value ([2]; Drying at 25° C., 3 hrs) of the same molecule?
Its value is “Form γ”.

What about the “Results (polymorphic form by PXRD)” value ([2]; Humidity (RH >90%), 3 hrs) of the same molecule?
Its value is “Form γ”.

What about the “Results (polymorphic form by PXRD)” value ([2]; Humidity (RH >90%), 3 hrs, listed as amorphous Perindopril Arginine salt) of the same molecule?
The value was “polymorphic form γ”.

What about the Change in form ([2]; in humidity) of the same molecule?
Its Change in form is “converted to Form γ”.

With `CCC[C@H](N[C@@H](C)C(=O)N1[C@H](C(=O)O)C[C@@H]2CCCC[C@@H]21)C(=O)OCC.N=C(N)NCCC[C@H](N)C(=O)O` [Form α, Perindopril (L)-Arginine] as the molecule, how does the “Result (polymorphic form by PXRD after slurry)” value ([1]; ACN, volume 5, 25-30 ° C.) read?
Its value is “Form γ”.

And the “Result (polymorphic form by PXRD after slurry)” value ([1]; ACN, volume 5, 70-80 ° C.)?
The value was “Form γ”.

What about the “Result (polymorphic form by PXRD after slurry)” value ([1]; Toluene, volume 5, 25-30 ° C.) of the same molecule?
The value was “Form γ”.

And the “Result (polymorphic form by PXRD after slurry)” value ([1]; n-heptane, volume 5, 25-30 ° C.)?
The value was “Form α”.

And the “Form conversion or dissociation” value [1]?
Its value is “No discernible form conversion or dissociation”.

What about the Form conversion [1] of the same molecule?
The Form conversion was “converted to form γ”.

What about the “Results (polymorphic form by PXRD)” value ([2]; Drying at 70° C., 3 days) of the same molecule?
Its value is “Form α”.

And the “Results (polymorphic form by PXRD)” value ([2]; Drying at 100° C., 7 days)?
Its value is “Form α”.

What about the “Results (polymorphic form by PXRD)” value ([2]; Humidity (RH >90%), 15 hrs) of the same molecule?
Its value is “Form γ”.

What about the Change in form ([2]; in humidity) of the same molecule?
The Change in form was “converted to Form γ”.

For `CCC[C@H](N[C@@H](C)C(=O)N1[C@H](C(=O)O)C[C@@H]2CCCC[C@@H]21)C(=O)OCC.N=C(N)NCCC[C@H](N)C(=O)O` [Form γ, Perindopril (L)-Arginine], which “Increase in moisture content” value [3] is on record?
Its value is “no substantial increase in moisture content”.

And the “Result (polymorphic form by PXRD after slurry)” value ([1]; ACN, volume 10, 80 ° C.)?
The value was “Form v”.

And the “Result (polymorphic form by PXRD after slurry)” value ([1]; Toluene, volume 10, 110 ° C.)?
Its value is “Form γ”.

What about the Relative thermodynamic stability ([1]; conclusion from stability and slurry observations) of the same molecule?
Its Relative thermodynamic stability is “thermodynamically more stable than Perindopril (L)-Arginine amorphous and form α”.

What about the “Result (polymorphic form by PXRD after slurry)” value ([1]; n-heptane, volume 10, 60-80 ° C.) of the same molecule?
Its value is “Form γ”.

And the “Form conversion or dissociation” value [1]?
Its value is “No discernible form conversion or dissociation”.

What about the PXRD ([4]; After 1 month) of the same molecule?
The PXRD was “Same as initial”.

And the “Purity (%) (HPLC)” value ([4]; After 1 month)?
Its value is 99.2%.

And the “m/c (%) (moisture content, Karl-Fisher)” value ([4]; After 1 month)?
Its value is 4.4%.

And the PXRD ([4]; After 2 months)?
The PXRD was “Same as initial”.

And the “Purity (%) (HPLC)” value ([4]; After 2 months)?
The value was 99.1%.

What about the “m/c (%) (moisture content, Karl-Fisher)” value ([4]; After 2 months) of the same molecule?
The value was 5.0%.

What about the PXRD ([4]; After 15 days) of the same molecule?
The PXRD was “Same as initial”.

What about the “Purity (%) (HPLC)” value ([4]; After 15 days) of the same molecule?
The value was 99.2%.

And the “m/c (%) (moisture content, Karl-Fisher)” value ([4]; After 15 days)?
The value was 4.2%.

And the PXRD ([4]; Initial)?
Its PXRD is “Form γ”.

What about the “Purity (%) (HPLC)” value ([4]; Initial) of the same molecule?
The value was 99.1%.

And the “m/c (%) (moisture content, Karl-Fisher)” value ([4]; Initial)?
Its value is 3.8%.

And the “Chemical and physical stability” value ([4]; accelerated stability)?
The value was “chemically and physically very stable”.

What about the “Degradation in HPLC” value ([4]; accelerated stability) of the same molecule?
The value was “no degradation”.

What about the “Increase in moisture content” value ([4]; accelerated stability) of the same molecule?
Its value is “no substantial increase”.

And the “Results (polymorphic form by PXRD)” value ([2]; Drying at 70° C., 3 days)?
The value was “Form γ”.

And the “Results (polymorphic form by PXRD)” value ([2]; Drying at 100° C., 7 days)?
The value was “Form γ”.

And the “Results (polymorphic form by PXRD)” value ([2]; Humidity (RH >90%), 15 hrs)?
Its value is “Form γ”.

And the Change in form ([2]; both drying and humid conditions)?
Its Change in form is “no change in form”.

With `CC(C)(C)N.CCC[C@H](N[C@@H](C)C(=O)N1[C@H](C(=O)O)C[C@@H]2CCCC[C@@H]21)C(=O)OCC` [Perindopril tert-butylamine salt] as the molecule, how does the Shelf-life [5] read?
Its Shelf-life is ≤ 2 years.
